Experimental data published in ChEMBL document CHEMBL5523686, “Medicinal chemistry perspectives on the development of piperazine-containing HIV-1 inhibitors” (Bioorg Med Chem, 2024).
Converted amounts (≈) assume the structure as drawn.

Legend:
[1] = tested on: Human immunodeficiency virus 1; experiment: Antiviral activity against HIV-1 3B infected in human MT4 cells assessed as inhibition of viral replication incubated for 5 days by MTT assay; assay type: functional, organism-based; details: Human immunodeficiency virus 1, 3B, MT4, 120 h
[2] = tested on: Human immunodeficiency virus 1; experiment: Antiviral activity against HIV-1 IIIB infected in human MT4 cells assessed as inhibition of viral replication measured after 5 days by MTT spectrophotometric assay; assay type: functional, organism-based; details: Human immunodeficiency virus 1, IIIB, MT4, 120 h
[3] = tested on: Human immunodeficiency virus 2; experiment: Antiviral activity against HIV-2 ROD infected in human MT4 cells assessed as inhibition of viral replication measured after 5 days by MTT spectrophotometric assay; assay type: functional, organism-based; details: Human immunodeficiency virus 2, ROD, MT4, 120 h
[4] = tested on: Human immunodeficiency virus 1; experiment: Antiviral activity against HIV1 IIIB infected in human MT4 cells assessed as inhibition of viral replication incubated for 3 to 7 days by MTT analysis; assay type: functional, organism-based; details: Human immunodeficiency virus 1, IIIB
[5] = Aqueous solubility of compound at pH 7; assay type: physicochemical
[6] = tested on: Human immunodeficiency virus 1; experiment: Antiviral activity against wild type HIV1 IIIB infected in human MT4 cells assessed as inhibition of viral replication incubated for 3 to 5 days by MTT analysis; assay type: functional, organism-based; details: Human immunodeficiency virus 1, IIIB
[7] = tested on: Human immunodeficiency virus 1; experiment: Antiviral activity against HIV1 Env pseudotyped virus infected in human HEK293T cells assessed as inhibition of viral growth incubated for 72 hrs by luciferase assay; assay type: functional, organism-based; details: Human immunodeficiency virus 1, HEK-293T

Work on O=C1Nc2ccc(Cl)cc2[C@@](C#CC2CC2)(C(F)(F)F)N1 yielded an IC50 [1] of 813 nM, an IC50 [2] of 2.22 µg/mL (≈ 7.05 µM) and an IC50 [3] of 2.22 µg/mL (≈ 7.05 µM).
In the case of Cn1c(N2CCNCC2)c(/N=N/c2ccc(Cl)cc2)c(N)nc1=O, the EC50 [4] is reported as greater than 3030 nM.
Cc1cc(C#N)cc(C)c1Oc1ccnc(Nc2ccc(N3CCN(S(C)(=O)=O)CC3)c(C#N)c2)n1 showed a solubility [5] of 13.5 µg/mL (≈ 26.7 µM) and an EC50 [6] of 1 nM.
Compound COc1cnc(-n2cnc(C)n2)c2[nH]cc(C(=O)C(=O)N3CC(C)N(C(=O)c4ccccc4)C(C)C3)c12 (stereo not drawn) has an IC50 [7] of 0.14 nM.
Compound Cc1cc(C#N)cc(C)c1Oc1ccnc(Nc2ccc(N3CCN(S(C)(=O)=O)CC3)nc2)n1 has an EC50 [6] of 2 nM.
